These results are taken from patent publication US20140137274A1, “INDUCED MALIGNANT STEM CELLS” (LSIP, LLC, priority 2011, published 2014).

In this data set the test system is cancer-related miRNAs. Briefly: miRNA expression microarray (SurePrint G3 Human miRNA Microarray Rel.16.0). The following applies: logarithmic (log2) value of quotient vs control. On the procedure:
Total RNA was prepared from each of six induced malignant stem cells, one induced non-malignant stem cell, and one induced pluripotent stem cell as mentioned above, and the prepared total RNAs were used in Agilent SurePrint G3 Human miRNA Microarray Rel.16.0 to detect abnormal expression (increased or reduced/lost expression) of non-coding RNAs such as endogenous cancer-related microRNAs in the induced malignant stem cells.
Complete Labeling Reagent and Hyb Kit in accordance with the Agilent protocol. To be specific, each sample total RNA (100 ng) was dephosphorylated with Calf Intestine Alkaline Phosphatase (CIP), and the RNA molecule on its 3′ terminal side was labeled with a cyanine 3-cytidine bisphosphate (pCp-Cy3) molecule using T4 RNA Ligase.
The RNA samples labeled in (14-2-3) were hybridized with SurePrint G3 Human miRNA Microarray Rel.16.0 using Agilent miRNA Complete Labeling Reagent and Hyb Kit. To be specific, each of the labeled RNAs was added to a hybridization buffer and allowed to hybridize on SurePrint G3 Human miRNA Microarray Rel.16.0 for 20 hours. After washing, the DNA microarray image was scanned by Agilent Microarray Scanner, and fluorescence signals from the spots were digitized by Feature Extraction Software (v.10.7.3.1).
The miRNAs were annotated using miRBase Release 18, and hybridization was performed onto a microarray chip with the probes designed for the miRNAs shown in the following table (refer to Table 31 below).
In this analysis, the normalized value of the digital data for the hybridization of a subject cell (induced malignant stem cell) sample was divided by the normalized value from the digital data for the hybridization of a control cell sample and the quotient was used as a measure of variation in expression. Probes for which the quotients deviated from 1 (i.e., log21=0) were considered to indicate a variation in expression; those showing quotients greater than 2 (log22=1) or smaller than 0.5 (log20.5=−1) were selected. For each of the comparisons shown below, the genes shown in the tyrosine kinase list and those shown in the cancer drug targets list were analyzed to make respective lists of the genes showing quotients greater than 2 (log22=1) or smaller than 0.5 (log20.5=−1), as compared with the quotient for the control (taken as 1). The analysis was performed using GeneSpring 12.1.
The Normalized column represents a variation in expression in logarithmic values.

On to “hSA-lEt-7f-5p (AACTATACAATCTACTACCTC; chemistry not given here)”, for which the “Normalized (variation in microRNA expression, subject cell / control cell)” value ([Ngc1_7]vs [Nib2_17]) stood at 2.259.

Consider “hsa-1et-7c (AACCATACAACCTACTACC; chemistry not given here)”, for which the “Normalized (variation in microRNA expression, subject cell / control cell)” value ([cc4_c]vs [Nfb2_17]) is given as 4.789.

Turning to “hsa-let-7a-5p (AACTATACAACCTACTACCT; chemistry not given here)”, the “Normalized (variation in microRNA expression, subject cell / control cell)” value by setting is: ([Ngc1_7]vs [Nib2_17]) 1.941; ([cc4_c]vs [Nfb2_17]) 5.026; ([gc1_6]vs [Ngc1_7]) −1.09; ([gc2_1]vs [Nfb2_17]) −1.233; ([gc2_5]vs [Nfb2_17]) −1.334.

For “hsa-let-7b-5p (AACCACACAACCTACTACC; chemistry not given here)”, the “Normalized (variation in microRNA expression, subject cell / control cell)” value ([gc1_6]vs [Ngc1_7]) was −1.937.

“hsa-let-7c (AACCATACAACCTACTACC; chemistry not given here)”: the “Normalized (variation in microRNA expression, subject cell / control cell)” value by setting is: ([Ngc1_7]vs [Nib2_17]) 2.65; ([gc1_6]vs [Ngc1_7]) −1.801.

For “hsa-let-7d-5p (AACTATGCAACCTACTACC; chemistry not given here)”, the “Normalized (variation in microRNA expression, subject cell / control cell)” value ([gc1_6]vs [Ngc1_7]) is −1.545.

As for “hsa-let-7e-5p (AACTATACAACCTCCTACC; chemistry not given here)”, the “Normalized (variation in microRNA expression, subject cell / control cell)” value reads like this: ([Ngc1_7]vs [Nib2_17]) 3.356; ([cc4_c]vs [Nfb2_17]) 4.793; ([gc1_6]vs [Ngc1_7]) −2.684; ([gc2_1]vs [Nfb2_17]) 1.601; ([gc2_10]vs +Nfb2_17]) 2.18.

For the substance “hsa-let-7f-5p (AACTATACAATCTACTACCTC; chemistry not given here)”, the “Normalized (variation in microRNA expression, subject cell / control cell)” value is, setting by setting: ([cc4_c]vs [Nfb2_17]) 5.523; ([gc1_6]vs [Ngc1_7]) −1.421.

With “hsa-let-7g-5p (AACTGTACAAACTACTACCTC; chemistry not given here)”, where the note is “[gc1_6]vs [Ngc1_7]”, the “Normalized (variation in microRNA expression, subject cell / control cell)” value is −1.935.

Regarding “hsa-let-7i-5p (AACAGCACAAACTACTACCTC; chemistry not given here)”, the “Normalized (variation in microRNA expression, subject cell / control cell)” value was 2.747 ([Ngc1_7]vs [Nib2_17]), 4.054 ([cc4_c]vs [Nfb2_17]), −1.307 ([gc1_6]vs [Ngc1_7]) and 1.44 ([gcl_6]vs [Nfb2_17]).

For the substance “hsa-miR-7-5p (ACAACAAAATCACTAGTCTTCC; chemistry not given here)”, the “Normalized (variation in microRNA expression, subject cell / control cell)” value ([cc4_c]vs [Nfb2_17]) is reported as 2.213.

Turning to “hsa-miR-15a-5p (CACAAACCATTATGTGCTGCT; chemistry not given here)”, where the note is “[cc4_c]vs [Nfb2_17]”, the “Normalized (variation in microRNA expression, subject cell / control cell)” value worked out at 1.163.

In the case of “hsa-miR-16-5p (CGCCAATATTTACGTGCTG; chemistry not given here)”, the “Normalized (variation in microRNA expression, subject cell / control cell)” value was −5.228 ([gc2_1]vs [Nfb2_17]), −4.816 ([gc2_5]vs [Nfb2_17]) and −4.956 ([gc2_10]vs +Nfb2_17]).

As for “hsa-miR-17-5p (CTACCTGCACTGTAAGC; chemistry not given here)”, the “Normalized (variation in microRNA expression, subject cell / control cell)” value ([gc2_1]vs [Nfb2_17]) is on record as −3.19 and the “Normalized (variation in microRNA expression, subject cell / control cell)” value ([gc2_5]vs [Nfb2_17]) is reported as −3.466.

As to “hsa-miR-18a-5p (CTATCTGCACTAGATGCA; chemistry not given here)”, under “[cc4_c]vs [Nfb2_17]”, the “Normalized (variation in microRNA expression, subject cell / control cell)” value is recorded as −1.44.

For “hsa-miR-20a-5p (CTACCTGCACTATAAGCAC; chemistry not given here)”, the “Normalized (variation in microRNA expression, subject cell / control cell)” value by setting is: ([gc2_1]vs [Nfb2_17]) −4.784; ([gc2_5]vs [Nfb2_17]) −4.951; ([gc2_10]vs +Nfb2_17]) −5.12.

As for “hsa-miR-20b-5p (CTACCTGCACTATGAGCAC; chemistry not given here)”, the “Normalized (variation in microRNA expression, subject cell / control cell)” value reads like this: ([cc4_c]vs [Nfb2_17]) −3.293; ([gc2_1]vs [Nfb2_17]) −3.152; ([gc2_5]vs [Nfb2_17]) −3.269; ([gc2_10]vs +Nfb2_17]) −3.502.

As to “hsa-miR-21-5p (TCAACATCAGTCTGATAAGC; chemistry not given here)”, the “Normalized (variation in microRNA expression, subject cell / control cell)” value ([Ngc1_7]vs [Nib2_17]) is on record as 1.136; the “Normalized (variation in microRNA expression, subject cell / control cell)” value ([cc4_c]vs [Nfb2_17]) came to 2.904; the “Normalized (variation in microRNA expression, subject cell / control cell)” value ([gc2_1]vs [Nfb2_17]) is reported as −6.311; the “Normalized (variation in microRNA expression, subject cell / control cell)” value ([gc2_5]vs [Nfb2_17]) is listed as −6.38; the “Normalized (variation in microRNA expression, subject cell / control cell)” value ([gc2_10]vs +Nfb2_17]) is −5.844.

Turning to “hsa-miR-23b-3p (GGTAATCCCTGGCAATG; chemistry not given here)”, the “Normalized (variation in microRNA expression, subject cell / control cell)” value was 1.154 ([Ngc1_7]vs [Nib2_17]), 3.268 ([cc4_c]vs [Nfb2_17]) and −1.014 ([gc1_6]vs [Ngc1_7]).

Turning to “hsa-miR-25-3p (TCAGACCGAGACAAGTGC; chemistry not given here)”, the “Normalized (variation in microRNA expression, subject cell / control cell)” value reads like this: ([gc2_1]vs [Nfb2_17]) −1.899; ([gc2_5]vs [Nfb2_17]) −1.478; ([gc2_10]vs +Nfb2_17]) −1.515.

Consider “hsa-miR-27a-3p (GCGGAACTTAGCCACTG; chemistry not given here)”, for which the “Normalized (variation in microRNA expression, subject cell / control cell)” value is recorded as 1.084 ([Ngc1_7]vs [Nib2_17]), 3.755 ([cc4_c]vs [Nfb2_17]) and −1.047 ([gc1_6]vs [Ngc1_7]).

As for “hsa-miR-27b-3p (GCAGAACTTAGCCACTGT; chemistry not given here)”, the “Normalized (variation in microRNA expression, subject cell / control cell)” value is 2.569 ([cc4_c]vs [Nfb2_17]), −2.575 ([gc2_1]vs [Nfb2_17]) and −2.297 ([gc2_10]vs +Nfb2_17]).

For the substance “hsa-miR-29a-3p (TAACCGATTTCAGATGGTGC; chemistry not given here)”, the “Normalized (variation in microRNA expression, subject cell / control cell)” value was 3.972 ([cc4_c]vs [Nfb2_17]) and −3.561 ([gc2_10]vs +Nfb2_17]).

For the substance “hsa-miR-29b-3p (AACACTGATTTCAAATGGTGC; chemistry not given here)”, the “Normalized (variation in microRNA expression, subject cell / control cell)” value ([cc4_c]vs [Nfb2_17]) is listed as 4.488.

As for “hsa-miR-34a-5p (ACAACCAGCTAAGACACTGC; chemistry not given here)”, the “Normalized (variation in microRNA expression, subject cell / control cell)” value by setting is: ([gc2_1]vs [Nfb2_17]) −2.608; ([gc2_5]vs [Nfb2_17]) −2.833; ([gc2_10]vs +Nfb2_17]) −2.706.

In the case of “hsa-miR-34c-5p (GCAATCAGCTAACTACACTG; chemistry not given here)”, the “Normalized (variation in microRNA expression, subject cell / control cell)” value ([cc4_c]vs [Nfb2_17]) was 1.308.

With “hsa-miR-96-5p (AGCAAAAATGTGCTAGTGCCAA; chemistry not given here)”, the “Normalized (variation in microRNA expression, subject cell / control cell)” value ([cc4_c]vs [Nfb2_17]) is on record as 1.093.

Turning to “hsa-miR-124-3p (GGCATTCACCGCGTGC; chemistry not given here)”, the “Normalized (variation in microRNA expression, subject cell / control cell)” value turned out to be 1.242 ([Ngc1_7]vs [Nib2_17]) and 1.88 ([gcl_6]vs [Nfb2_17]).

On to “hsa-miR-125a-5p (TCACAGGTTAAAGGGTCTC; chemistry not given here)”, for which the “Normalized (variation in microRNA expression, subject cell / control cell)” value runs as follows: ([cc4_c]vs [Nfb2_17]) 1.809; ([gc1_6]vs [Ngc1_7]) −1.373; ([gc2_5]vs [Nfb2_17]) −1.149.

In the case of “hsa-miR-125b-5p (TCACAAGTTAGGGTCTC; chemistry not given here)”, the “Normalized (variation in microRNA expression, subject cell / control cell)” value reads like this: ([Ngc1_7]vs [Nib2_17]) 1.982; ([cc4_c]vs [Nfb2_17]) 2.946; ([gc1_6]vs [Ngc1_7]) −1.393; ([gc2_1]vs [Nfb2_17]) −1.425; ([gc2_5]vs [Nfb2_17]) −2.411.

As to “hsa-miR-130a-3p (ATGCCCTTTTAACATTGCA; chemistry not given here)”, the “Normalized (variation in microRNA expression, subject cell / control cell)” value reads like this: ([cc4_c]vs [Nfb2_17]) −4.732; ([gc2_1]vs [Nfb2_17]) −5.267; ([gc2_5]vs [Nfb2_17]) −5.014; ([gc2_10]vs +Nfb2_17]) −5.029.
